Measurements from the NIST ThermoML archive (doi:10.1021/je1004092).

Experiments:
[1] = Molar enthalpy of transition or fusion; conditions: Crystal; Adiabatic calorimetry
[2] = Crystal; Adiabatic calorimetry
[3] = molar heat capacity at constant pressure; conditions: 101.33 kPa, Vacuum adiabatic calorimetry

O=C(N[C@@H](Cc1ccccc1)C(=O)O)OCc1ccccc1 [((benzyloxy)carbonyl)-L-phenylalanine]
Conditions	Molar enthalpy of transition or fusion [kcal/mol]	Triple point temperature [K]
[1]	7.597	–
[2]	–	359.48

[3]
Conditions	molar heat capacity at constant pressure [J/K/mol]
79.13 K, Crystal	109.2
81.17 K, Crystal	111.4
84.32 K, Crystal	114.7
87.26 K, Crystal	119.7
90.2 K, Crystal	124.4
93.15 K, Crystal	128
96.1 K, Crystal	130.2
99.05 K, Crystal	132.6
103.16 K, Crystal	135.7
107.22 K, Crystal	140.4
110.14 K, Crystal	143.8
113.08 K, Crystal	146.3
116.03 K, Crystal	149.3
119 K, Crystal	150.1
121.92 K, Crystal	156.4
124.86 K, Crystal	158.7
127.83 K, Crystal	160.7
130.81 K, Crystal	161.9
133.81 K, Crystal	165.1
136.78 K, Crystal	168.9
139.76 K, Crystal	171.3
142.78 K, Crystal	172.5
145.75 K, Crystal	176.2
148.7 K, Crystal	181.2
152.53 K, Crystal	181.4
156.3 K, Crystal	185.2
159.2 K, Crystal	189.8
162.16 K, Crystal	191.9
165.09 K, Crystal	194.2
168.09 K, Crystal	197.5
171.13 K, Crystal	198.8
174.16 K, Crystal	201.1
177.16 K, Crystal	206.1
180.14 K, Crystal	209.9
183.11 K, Crystal	211.4
186.05 K, Crystal	211.8
188.97 K, Crystal	218.1
191.95 K, Crystal	219.3
194.98 K, Crystal	223
198 K, Crystal	226.3
201 K, Crystal	229.2
204.65 K, Crystal	233.5
208.28 K, Crystal	236.2
211.23 K, Crystal	238.9
214.17 K, Crystal	242
217.09 K, Crystal	248.7
220 K, Crystal	250.5
222.89 K, Crystal	252.5
225.77 K, Crystal	254.9
228.72 K, Crystal	256.4
231.73 K, Crystal	258
234.73 K, Crystal	260.1
237.77 K, Crystal	264.5
240.78 K, Crystal	266.6
244.33 K, Crystal	268.1
247.89 K, Crystal	270.2
250.89 K, Crystal	273.1
253.88 K, Crystal	277.4
256.87 K, Crystal	280.9
259.83 K, Crystal	282.4
262.79 K, Crystal	286.2
265.74 K, Crystal	290.4
268.67 K, Crystal	292.7
271.58 K, Crystal	297.9
274.49 K, Crystal	302.3
277.38 K, Crystal	301.8
280.25 K, Crystal	307.3
283.12 K, Crystal	314.7
286.09 K, Crystal	319.9
289.05 K, Crystal	323.8
291.98 K, Crystal	326.7
295.01 K, Crystal	330.1
298.06 K, Crystal	333
301.11 K, Crystal	336.5
304.15 K, Crystal	339.5
307.19 K, Crystal	340.6
310.22 K, Crystal	343.9
313.24 K, Crystal	348.3
316.26 K, Crystal	351.4
319.27 K, Crystal	353.7
322.27 K, Crystal	358.3
325.27 K, Crystal	362.5
328.25 K, Crystal	367.6
331.24 K, Crystal	371.4
334.21 K, Crystal	375.1
337.17 K, Crystal	380.6
340.13 K, Crystal	389.8
343.07 K, Crystal	396.6
345.97 K, Crystal	418.3
348.88 K, Crystal	508.8
361.43 K, Liquid	549.6
364.56 K, Liquid	551.9
367.7 K, Liquid	552.7
370.83 K, Liquid	553.6
373.95 K, Liquid	554.9
377.05 K, Liquid	555.6
380.13 K, Liquid	557.1
383.21 K, Liquid	558.5
386.33 K, Liquid	560.8
389.43 K, Liquid	562.4
392.55 K, Liquid	563.6
395.55 K, Liquid	564.8
